We go through 3 compounds from PMC9516332 (Frontiers in Oncology, 2022).

Assay in all cases: Kinase panel profiling at 1 µmol/L (MSA or IMAP), percentage inhibition
Common to all, as to type: biochemical

Assay [1] addresses panel of 255 wild-type kinases (Homo sapiens, UniProt P08922). The following applies: kinase ROS; 1 µmol/L single concentration; read-out: %-inhibition at 1 µmol/L, ROS.
For assay [2], the target named is T1, panel of 255 wild-type kinases (Homo sapiens, UniProt P36888).
T1 sequence (P36888 27-993): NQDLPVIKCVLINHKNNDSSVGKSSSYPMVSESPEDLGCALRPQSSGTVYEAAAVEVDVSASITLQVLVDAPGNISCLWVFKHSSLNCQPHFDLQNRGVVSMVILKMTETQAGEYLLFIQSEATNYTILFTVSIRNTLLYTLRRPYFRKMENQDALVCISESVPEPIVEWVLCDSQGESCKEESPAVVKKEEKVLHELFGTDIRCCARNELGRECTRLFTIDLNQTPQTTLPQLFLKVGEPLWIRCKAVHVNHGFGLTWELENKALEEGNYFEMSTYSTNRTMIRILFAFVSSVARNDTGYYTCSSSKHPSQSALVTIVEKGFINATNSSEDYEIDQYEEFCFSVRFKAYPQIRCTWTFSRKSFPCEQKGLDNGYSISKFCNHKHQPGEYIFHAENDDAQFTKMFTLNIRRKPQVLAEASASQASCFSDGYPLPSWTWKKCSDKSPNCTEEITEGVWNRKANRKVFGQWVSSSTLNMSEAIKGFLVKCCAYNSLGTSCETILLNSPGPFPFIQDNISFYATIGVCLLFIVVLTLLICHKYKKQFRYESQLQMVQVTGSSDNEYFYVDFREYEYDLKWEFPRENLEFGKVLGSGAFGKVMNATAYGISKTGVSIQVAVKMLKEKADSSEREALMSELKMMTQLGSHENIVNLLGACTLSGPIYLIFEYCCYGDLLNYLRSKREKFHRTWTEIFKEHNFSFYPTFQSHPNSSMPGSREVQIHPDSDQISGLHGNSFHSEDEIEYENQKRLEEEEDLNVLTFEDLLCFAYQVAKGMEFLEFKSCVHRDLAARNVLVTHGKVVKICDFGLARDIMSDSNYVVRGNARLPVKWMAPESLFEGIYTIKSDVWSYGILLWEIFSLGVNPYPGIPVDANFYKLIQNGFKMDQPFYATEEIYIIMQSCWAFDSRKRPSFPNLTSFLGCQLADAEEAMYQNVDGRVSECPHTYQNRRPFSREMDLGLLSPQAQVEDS
The conditions noted are these: kinase FLT3; 1 µmol/L single concentration; read-out: %-inhibition at 1 µmol/L, FLT3.

Assay [3] addresses panel of 255 wild-type kinases (Homo sapiens, UniProt Q9P289). The conditions noted are these: MST4; 1 µmol/L single concentration; read-out: %-inhibition, MST4.
For assay [4], the target named is panel of 255 wild-type kinases (Homo sapiens, UniProt Q9H2X6). The following applies: kinase HIPK2; 1 µmol/L single concentration; read-out: %-inhibition at 1 µmol/L, HIPK2.
The target in assay [5] is panel of 255 wild-type kinases (Homo sapiens, UniProt P17948). The following applies: kinase FLT1; 1 µmol/L single concentration; read-out: %-inhibition at 1 µmol/L, FLT1.
Assay [6] has as its target T2, panel of 255 wild-type kinases (Homo sapiens, UniProt Q06418).
T2 sequence (Q06418 41-890): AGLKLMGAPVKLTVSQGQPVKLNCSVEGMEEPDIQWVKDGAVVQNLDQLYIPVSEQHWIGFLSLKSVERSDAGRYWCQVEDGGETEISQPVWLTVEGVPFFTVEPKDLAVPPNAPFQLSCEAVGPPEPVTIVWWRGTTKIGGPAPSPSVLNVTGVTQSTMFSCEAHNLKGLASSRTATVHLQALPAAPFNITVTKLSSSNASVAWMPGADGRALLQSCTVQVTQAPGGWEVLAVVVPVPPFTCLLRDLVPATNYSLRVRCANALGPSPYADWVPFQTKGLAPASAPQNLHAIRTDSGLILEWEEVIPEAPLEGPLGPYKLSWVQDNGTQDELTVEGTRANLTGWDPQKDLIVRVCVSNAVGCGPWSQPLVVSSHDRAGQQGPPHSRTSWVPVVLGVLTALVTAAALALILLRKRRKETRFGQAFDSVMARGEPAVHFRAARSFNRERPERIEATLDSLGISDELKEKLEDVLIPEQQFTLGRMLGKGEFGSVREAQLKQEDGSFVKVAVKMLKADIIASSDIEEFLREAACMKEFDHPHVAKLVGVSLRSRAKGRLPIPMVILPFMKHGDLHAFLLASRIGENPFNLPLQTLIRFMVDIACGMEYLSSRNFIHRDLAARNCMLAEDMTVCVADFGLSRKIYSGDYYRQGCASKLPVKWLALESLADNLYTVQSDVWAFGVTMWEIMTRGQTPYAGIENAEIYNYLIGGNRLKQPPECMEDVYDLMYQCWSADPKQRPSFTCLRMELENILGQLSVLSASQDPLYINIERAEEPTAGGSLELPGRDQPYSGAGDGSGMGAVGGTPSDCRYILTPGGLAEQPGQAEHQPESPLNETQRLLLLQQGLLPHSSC
The following applies: kinase TYRO3; 1 µmol/L single concentration; read-out: %-inhibition at 1 µmol/L, TYRO3.

Turning to `Cn1cnc2c(F)c(Nc3ccc(Br)cc3Cl)c(C(=O)NOCCO)cc21` [selumetinib], the inhibition at 1 µM in assay [1] is 15%; in assay [2], 52%; in assay [3] it was -0.349%; in assay [4], 2.71%; in assay [5], 4.22%; in assay [6], 11%.
`Cc1cc(Nc2ncnc3ccc(NC4=NC(C)(C)CO4)cc23)ccc1Oc1ccn2ncnc2c1` [tucatinib]: the inhibition at 1 µM in assay [1] stood at 21%; in assay [2], 48%; in assay [3] it was 3%; in assay [4], 6%; in assay [5] it was 3.22%; in assay [6], 6%.
Take `C=CC(=O)N1CCC([C@@H]2CCNc3c(C(N)=O)c(-c4ccc(Oc5ccccc5)cc4)nn32)CC1` [zanubrutinib]: the inhibition at 1 µM was 1.9% in assay [1]; 22% in assay [2]; -1% in assay [3]; -0.321% in assay [4]; 2.22% in assay [5]; 5.5% in assay [6].
